Test results taken from the SangsterLogP compilation.

Test: method code SF, from DOI: 10.1016/j.ejps.2012.10.019, PMID: 23131797

SMILES	logD (pH 5.0)	further results
COc1ccc(C(C)=O)cc1COC(=O)c1cc(Cl)ccc1Cl	4.45	–
COc1ccc(-c2nnc(SCc3cc(=O)oc4ccc5ccccc5c34)n2N)cc1	4.24	–
CCNc1nc(NC(C)C)nc(Oc2ccc(OCC)nn2)n1	–	logD (pH 10.5): 3.14
CSc1scc(-c2cccs2)c1C#N	3.69	–
O=C(Nc1cccc(-c2cnc3ccccc3n2)c1)c1cccs1	–	logD (pH 7.3): 4.34
O=C(CSc1nc2ccccc2s1)c1cccs1	4.04	–
COC(=O)C1=C(C)NC(C)=C(C(=O)OC)C1c1cn(-c2ccccc2)nc1-c1cccc([N+](=O)[O-])c1	5.04	–
COc1ccc(OC)c(NC(=O)c2ccc(NC3=C(Cl)C(=O)N(C4CCCCC4)C3=O)cc2)c1	5.96	–
COc1ccc(C(=O)Cn2c(N3CCCCCC3)nc3c2c(=O)n(C)c(=O)n3C)cc1	–	logD (pH 10.0): 4.42
Cn1c(N)c(C(=O)CSc2nc3ccccc3nc2SCC(=O)c2c(N)n(C)c(=O)n(C)c2=O)c(=O)n(C)c1=O	–	logD (pH 10.5): 2.59
Cc1cccc(C(=O)Nc2ccc(NC(=O)c3ccccc3)c(C)c2)c1	4.14	–
NC(=O)C1CCN(C(=O)c2ccc3c(=O)n(Cc4ccco4)c(SCC(=O)c4ccccc4)nc3c2)CC1	5.31	–
COc1ccc(-c2nnc(N)s2)cc1OC	–	logD (pH 6.5): 2.34
COc1cccc(NC(=O)CSc2nnc3ccccn23)c1	–	logD (pH 7.3): 2.45
